# Assay results published in patent publication US20120130104A1, “CYCLOPROPENES-[…] TO CONTROL RIPENING PROCESSES OF AGRICULTURAL PRODUCTS” (priority 2005, published 2012).
# Test system: tomatoes
# Assay: Inhibitory effects of cyclopropene compounds on tomato ripening
# Format: in vivo
# Conditions: for Degree of ripening 0, number of tomatoes, Treated / Degree of ripening 1, number of tomatoes, Treated / Degree of ripening 2, number of tomatoes, Treated / Degree of ripening 3, number of tomatoes, Treated / Degree of ripening 4, number of tomatoes, Treated / Degree of ripening 5, number of tomatoes, Treated: scale 0 = no red color, 5 = completely ripened to dark red
# Protocol: A cube (60×60×60 cm) was fabricated using a transparent acrylic plastic plate. The upper surface of the cube was equipped with two valves for air-injection and exhaust. Immediately prior to beginning of the red ripening stages, 20 blue tomatoes were harvested and divided into a treatment group and a control group which were then placed in acrylic plastic vessels, respectively. Among two plastic vessels, the treatment group was treated with 1-methylcyclopropene generated by injection of 3 mL diglyme solution containing 0.2 g of 1-methyl-1-(methanesulfonyloxy)-2-(trimethylsilyl)cyclopropane {synthesized in Section (2) of Example 5} into a column packed with 5 g of 15% Bu4NF coated Silica gel {prepared in Section (2) of Example 4} while maintaining the air flow at a flow rate of 2 L/min using a small compressor (see FIG. 3).
# Tomatoes of the treatment group were treated for 1 hour according to the above-mentioned method and were then left for 12 hours while closing the valve. And then, tomatoes of the treatment group and tomatoes of the control group were observed on a progress of turning into red color. Based on the observation results, the ripening progress of tomatoes was evaluated.
# Herein, the degree of ripening of tomatoes was classified on a scale of 0 to 5:
# 0: No red color similar to when completely green tomatoes were harvested 5: Completely ripened to dark red 1 to 4: Red color between the scale of 0 and 5
# Therefore, the higher value represents the redder tomato color.
smiles,measurement,setting,value
CC1=CC1 [1-methylcyclopropene],inhibitory effects on the ripening process of tomatoes,1-methylcyclopropene generated by the device,significant inhibitory effects
same,"Degree of ripening 0, number of tomatoes, Treated",Day 0,10
same,"Degree of ripening 1, number of tomatoes, Treated",Day 0,0
same,"Degree of ripening 2, number of tomatoes, Treated",Day 0,0
same,"Degree of ripening 3, number of tomatoes, Treated",Day 0,0
same,"Degree of ripening 4, number of tomatoes, Treated",Day 0,0
same,"Degree of ripening 5, number of tomatoes, Treated",Day 0,0
same,"Degree of ripening 0, number of tomatoes, Treated",Day 1,10
same,"Degree of ripening 1, number of tomatoes, Treated",Day 1,0
same,"Degree of ripening 2, number of tomatoes, Treated",Day 1,0
same,"Degree of ripening 3, number of tomatoes, Treated",Day 1,0
same,"Degree of ripening 4, number of tomatoes, Treated",Day 1,0
same,"Degree of ripening 5, number of tomatoes, Treated",Day 1,0
same,"Degree of ripening 0, number of tomatoes, Treated",Day 2,10
same,"Degree of ripening 1, number of tomatoes, Treated",Day 2,0
same,"Degree of ripening 2, number of tomatoes, Treated",Day 2,0
same,"Degree of ripening 3, number of tomatoes, Treated",Day 2,0
same,"Degree of ripening 4, number of tomatoes, Treated",Day 2,0
same,"Degree of ripening 5, number of tomatoes, Treated",Day 2,0
same,"Degree of ripening 0, number of tomatoes, Treated",Day 3,9
same,"Degree of ripening 1, number of tomatoes, Treated",Day 3,1
same,"Degree of ripening 2, number of tomatoes, Treated",Day 3,0
same,"Degree of ripening 3, number of tomatoes, Treated",Day 3,0
same,"Degree of ripening 4, number of tomatoes, Treated",Day 3,0
same,"Degree of ripening 5, number of tomatoes, Treated",Day 3,0
same,"Degree of ripening 0, number of tomatoes, Treated",Day 4,8
same,"Degree of ripening 1, number of tomatoes, Treated",Day 4,1
same,"Degree of ripening 2, number of tomatoes, Treated",Day 4,1
same,"Degree of ripening 3, number of tomatoes, Treated",Day 4,0
same,"Degree of ripening 4, number of tomatoes, Treated",Day 4,0
same,"Degree of ripening 5, number of tomatoes, Treated",Day 4,0
same,"Degree of ripening 0, number of tomatoes, Treated",Day 5,8
same,"Degree of ripening 1, number of tomatoes, Treated",Day 5,1
same,"Degree of ripening 2, number of tomatoes, Treated",Day 5,0
same,"Degree of ripening 3, number of tomatoes, Treated",Day 5,1
same,"Degree of ripening 4, number of tomatoes, Treated",Day 5,0
same,"Degree of ripening 5, number of tomatoes, Treated",Day 5,0
same,"Degree of ripening 0, number of tomatoes, Treated",Day 6,6
same,"Degree of ripening 1, number of tomatoes, Treated",Day 6,2
same,"Degree of ripening 2, number of tomatoes, Treated",Day 6,1
same,"Degree of ripening 3, number of tomatoes, Treated",Day 6,0
same,"Degree of ripening 4, number of tomatoes, Treated",Day 6,1
same,"Degree of ripening 5, number of tomatoes, Treated",Day 6,0
same,"Degree of ripening 0, number of tomatoes, Treated",Day 7,6
same,"Degree of ripening 1, number of tomatoes, Treated",Day 7,2
same,"Degree of ripening 2, number of tomatoes, Treated",Day 7,1
same,"Degree of ripening 3, number of tomatoes, Treated",Day 7,0
same,"Degree of ripening 4, number of tomatoes, Treated",Day 7,0
same,"Degree of ripening 5, number of tomatoes, Treated",Day 7,1
same,"Degree of ripening 0, number of tomatoes, Treated",Day 8,5
same,"Degree of ripening 1, number of tomatoes, Treated",Day 8,2
same,"Degree of ripening 2, number of tomatoes, Treated",Day 8,1
same,"Degree of ripening 3, number of tomatoes, Treated",Day 8,1
same,"Degree of ripening 4, number of tomatoes, Treated",Day 8,0
same,"Degree of ripening 5, number of tomatoes, Treated",Day 8,1
same,"Degree of ripening 0, number of tomatoes, Treated",Day 9,2
same,"Degree of ripening 1, number of tomatoes, Treated",Day 9,3
same,"Degree of ripening 2, number of tomatoes, Treated",Day 9,2
same,"Degree of ripening 3, number of tomatoes, Treated",Day 9,1
same,"Degree of ripening 4, number of tomatoes, Treated",Day 9,1
same,"Degree of ripening 5, number of tomatoes, Treated",Day 9,1
same,"Degree of ripening 0, number of tomatoes, Treated",Day 10,1
same,"Degree of ripening 1, number of tomatoes, Treated",Day 10,1
same,"Degree of ripening 2, number of tomatoes, Treated",Day 10,3
same,"Degree of ripening 3, number of tomatoes, Treated",Day 10,2
same,"Degree of ripening 4, number of tomatoes, Treated",Day 10,1
same,"Degree of ripening 5, number of tomatoes, Treated",Day 10,2
same,full ripening of tomatoes of the treatment group,even after 10 days,most of them did not exhibit full ripening
same,time after which tomatoes of the treatment group began the ripening process,"treatment group, control group began to ripen after 1 day",about 3 days
